Assay results: patent US7872026B2, “Ligand activators of the RAR receptors and pharmaceutical/cosmetic applications thereof” (Galderma Research & Development, priority 2003, dated 2011)

Columns and labels:
[1] = biological target: T1, RAR beta (Homo sapiens, UniProt P10826); assay: Transactivation test (Kd apparent), RAR beta; format: cell-based; details: HeLa cells stably transfected with ERE-βGlob-Luc-SV-Neo reporter and RAR β ER-DBD-puro; luciferase; Schild regression vs reference antagonist; read-out: RAR beta Kd app
T1 sequence (P10826 183-417 limits assumed): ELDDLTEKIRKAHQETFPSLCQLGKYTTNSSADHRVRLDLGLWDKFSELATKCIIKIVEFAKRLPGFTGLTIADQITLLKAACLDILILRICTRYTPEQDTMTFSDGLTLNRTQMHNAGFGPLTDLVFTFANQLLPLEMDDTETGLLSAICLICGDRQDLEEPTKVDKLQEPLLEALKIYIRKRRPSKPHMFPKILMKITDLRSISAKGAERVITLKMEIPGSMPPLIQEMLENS
Method: (§1) The compounds according to the invention have activating properties on RAR-type receptors. This RAR-receptor-activating activity is measured in a test of transactivation by means of the dissociation constant Kdapp (apparent).
(§2) The activation of receptors with an agonist (activator) in HeLa cells leads to the expression of a reporter gene, luciferase, which, in the presence of a substrate, generates light. The activation of the receptors may thus be measured by quantifying the luminescence produced after incubating the cells in the presence of a reference agonist. The activating products displace the agonist from its site, thus preventing activation of the receptor. The activity is measured by quantifying the decrease in light produced. This measurement makes it possible to determine the activating activity of the compounds according to the invention.
(§3) In this study, a constant is determined which represents the affinity of the molecule for the receptor. Since this value can fluctuate depending on the basal activity and the expression of the receptor, it is referred to as the Kd apparent (KdApp).
(§4) To determine this constant, the cells are brought into contact with a concentration of the test product and a concentration of the reference antagonist, 4-(5,5-dimethyl-8-p-tolyl-5,6-dihydro-2-naphthalen-2-ylethynyl)benzoic acid. Measurements are also taken for the total agonist (4-[2-(5,5,8,8-tetramethyl-5,6,7,8-tetrahydro-2-naphthyl)propenyl]benzoic acid) and inverse agonist, 4-{(E)-3-[4-(4-tert-butylphenyl)-5,5,8,8-tetramethyl-5,6,7,8-tetrahydro-2-naphthyl]-3-oxopropenyl}benzoic acid, controls.
(§5) These crossed curves make it possible to determine the AC50 values (concentration at which 50% activation is observed) for the reference ligand at various concentrations of test product. These AC50 values are used to calculate the Schild regression by plotting a straight line corresponding to the Schild equation (“Quantitation in Receptor Pharmacology” Terry P. Kenakin, Receptors and Channels, 2001, 7, 371-385).
(§6) In the case of an agonist, an AC50 value (concentration that gives 50% of the activity) is calculated by plotting the curve of the product at the concentration of the reference ligand that gives 80% activation.
(§7) The HeLa cell lines used are stable transfectants containing the plasmids ERE-βGlob-Luc-SV-Neo (reporter gene) and RAR (α, β, γ) ER-DBD-puro. These cells are inoculated into 96-well plates at a rate of 10,000 cells per well in 100 μl of DMEM medium without phenol red, and supplemented with 10% defatted calf serum. The plates are then incubated at 37° C. and 7% CO2 for 4 hours.
(§8) The various dilutions of the test products, of the reference ligand (4-(5,5-dimethyl-8-p-tolyl-5,6-dihydro-2-naphthalen-2-ylethynyl)benzoic acid), of the 100% control (100 nM 4-[2-(5,5,8,8-tetramethyl-5,6,7,8-tetrahydro-2-naphthyl)propenyl]benzoic acid) and of the 0% control (500 nM 4-{(E)-3-[4-(4-tert-butylphenyl)-5,5,8,8-tetramethyl-5,6,7,8-tetrahydro-2-naphthyl]-3-oxopropenyl}benzoic acid) are added at a rate of 5 μl per well. The plates are then incubated for 18 hours at 37° C. and 7% CO2.
(§9) The culture medium is removed by turning over and 100 μl of a 1:1 PBS/luciferin mixture is added to each well. After 5 minutes, the plates are read using the luminescence reader.

[2] = biological target: T2, RAR alpha (Homo sapiens, UniProt P10276); assay: Transactivation test (Kd apparent), RAR alpha; format: cell-based; details: HeLa cells stably transfected with ERE-βGlob-Luc-SV-Neo reporter and RAR α ER-DBD-puro; luciferase; Schild regression vs reference antagonist; read-out: RAR alpha KD app
T2 sequence (P10276 183-417 limits assumed): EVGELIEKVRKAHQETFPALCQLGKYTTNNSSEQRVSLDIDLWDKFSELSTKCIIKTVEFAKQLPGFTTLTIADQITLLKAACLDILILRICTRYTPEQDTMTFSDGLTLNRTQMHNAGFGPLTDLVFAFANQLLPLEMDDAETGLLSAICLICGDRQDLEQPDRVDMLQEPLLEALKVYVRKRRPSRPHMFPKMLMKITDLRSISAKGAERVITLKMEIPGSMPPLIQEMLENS
Method: as §1, §2, §3, §4, §5, §6, §7, §8, §9

[3] = biological target: T3, RAR gamma (Homo sapiens, UniProt P13631); assay: Transactivation test (Kd apparent), RAR gamma; format: cell-based; details: HeLa cells stably transfected with ERE-βGlob-Luc-SV-Neo reporter and RAR γ ER-DBD-puro; luciferase; Schild regression vs reference antagonist; read-out: RAR gamma Kd app
T3 sequence (P13631 185-454 limits assumed): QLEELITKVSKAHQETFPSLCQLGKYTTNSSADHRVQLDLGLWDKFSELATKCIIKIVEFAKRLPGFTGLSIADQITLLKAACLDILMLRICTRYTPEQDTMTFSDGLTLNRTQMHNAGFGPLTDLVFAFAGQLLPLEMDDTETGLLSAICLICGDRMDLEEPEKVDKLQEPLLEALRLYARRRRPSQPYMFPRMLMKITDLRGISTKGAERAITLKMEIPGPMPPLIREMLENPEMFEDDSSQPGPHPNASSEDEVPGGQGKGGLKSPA
Method: as §1, §2, §3, §4, §5, §6, §7, §8, §9

Row | Kd [1] [nM] | Kd [3] [nM] | melting point [°C] | SMILES | Kd [2] [nM]
1 | 4000 | 120 |  | CC(C)NCCOc1ccc(-c2ccc(C(=O)O)cc2)cc1-c1ccc2c(c1)C(C)(C)CCC2(C)C [Compound 12, 4′-(2-Isopropylaminoethoxy)-3′-(5,5,8,8-tetramethyl-5,6,7,8-tetrahydronaphth-2-yl)biphenyl-4-carboxylic acid] | 
2 |  |  | 141 | CCOC(=O)c1ccc(-c2ccc(OCCCNC3CC3)c(-c3ccc4c(c3)C(C)(C)CCC4(C)C)c2)cc1 [Compound 50, Ethyl 4′-(3-cyclopropylaminopropoxy)-3′-(5,5,8,8-tetramethyl-5,6,7,8-tetrahydronaphth-2-yl)biphenyl-4-carboxylate] | 
3 |  |  | 175 | CCCCNCCCOc1ccc(-c2ccc(C(=O)OCC)cc2)cc1-c1ccc2c(c1)C(C)(C)CCC2(C)C [Compound 52, Ethyl 4′-(3-butylaminopropoxy)-3′-(5,5,8,8-tetramethyl-5,6,7,8-tetrahydronaphth-2-yl)biphenyl-4-carboxylate] | 
4 |  |  | 120 | CCCNCCCOc1ccc(-c2ccc(C(=O)OCC)cc2)cc1-c1ccc2c(c1)C(C)(C)CCC2(C)C [Compound 56, Ethyl 4′-(3-propylaminopropoxy)-3′-(5,5,8,8-tetramethyl-5,6,7,8-tetrahydronaphth-2-yl)biphenyl-4-carboxylate] | 
5 |  |  | 141 | CCOC(=O)c1ccc(-c2ccc(OCCCNC)c(-c3ccc4c(c3)C(C)(C)CCC4(C)C)c2)cc1 [Compound 60, Ethyl 4′-(3-methylaminopropoxy)-3′-(5,5,8,8-tetramethyl-5,6,7,8-tetrahydronaphth-2-yl)biphenyl-4-carboxylate] | 
6 |  | 30 |  | CNCCCOc1ccc(-c2ccc(C(=O)O)cc2)cc1-c1ccc2c(c1)C(C)(C)CCC2(C)C [Compound 61, 4′-(3-Methylaminopropoxy)-3′-(5,5,8,8-tetramethyl-5,6,7,8-tetrahydronaphth-2-yl)biphenyl-4-carboxylic acid] | 
7 |  |  | 148 | CCNCCCOc1ccc(-c2ccc(C(=O)OCC)cc2)cc1-c1ccc2c(c1)C(C)(C)CCC2(C)C [Compound 62, Ethyl 4′-(3-ethylaminopropoxy)-3′-(5,5,8,8-tetramethyl-5,6,7,8-tetrahydronaphth-2-yl)biphenyl-4-carboxylate] | 
8 |  | 250 |  | CCNCCCOc1ccc(-c2ccc(C(=O)O)cc2)cc1-c1ccc2c(c1)C(C)(C)CCC2(C)C [Compound 63, 4′-(3-Ethylaminopropoxy)-3′-(5,5,8,8-tetramethyl-5,6,7,8-tetrahydronaphth-2-yl)biphenyl-4-carboxylic acid] | 
9 | 60 | 4 |  | CC1(C)CCC(C)(C)c2cc(-c3cc(-c4ccc(C(=O)O)cc4)ccc3OCCNC3CC3)ccc21 [Compound 67, 4′-(2-Cyclopropylaminoethoxy)-3′-(5,5,8,8-tetramethyl-5,6,7,8-tetrahydronaphth-2-yl)biphenyl-4-carboxylic acid] | 1000
10 | 500 | 250 |  | CC1(C)CCC(C)(C)c2cc(-c3cc(-c4ccc(C(=O)O)cc4)ccc3OCCCCCNC3CC3)ccc21 [Compound 69, 4′-(5-Cyclopropylaminopentyloxy)-3′-(5,5,8,8-tetramethyl-5,6,7,8-tetrahydronaphth-2-yl)biphenyl-4-carboxylic acid] | 2000
11 | 2000 | 120 |  | CC1(C)CCC(C)(C)c2cc(-c3cc(-c4ccc(C(=O)O)cc4)ccc3OCCCCCN)ccc21 [Compound 73, 4′-(5-Aminopentyloxy)-3′-(5,5,8,8-tetramethyl-5,6,7,8-tetrahydronaphth-2-yl)biphenyl-4-carboxylic acid] | 2000

Row | SMILES | Kd [1] [nM] | Kd [3] [nM] | melting point [°C] | Kd [2] [nM]
12 | CC(C)NCCCCOc1ccc(-c2ccc(C(=O)O)cc2)cc1-c1ccc2c(c1)C(C)(C)CCC2(C)C [Compound 1, 4′-(4-Isopropylaminobutoxy)-3′-(5,5,8,8-tetramethyl-5,6,7,8-tetrahydronaphth-2-yl)biphenyl-4-carboxylic acid] | 500 | 15 |  | 1000
13 | CC1(C)CCC(C)(C)c2cc(-c3cc(-c4ccc(C(=O)O)cc4)ccc3OCCCCNC3CC3)ccc21 [Compound 59, 4′-(4-Cyclopropylaminobutoxy)-3′-(5,5,8,8-tetramethyl-5,6,7,8-tetrahydronaphth-2-yl)biphenyl-4-carboxylic acid] | 4000 | 1000 |  | 8000
14 | CC1(C)CCC(C)(C)c2cc(-c3cc(-c4ccc(C(=O)O)cc4)ccc3OCCCN)ccc21 [Compound 65, 4′-(3-Aminopropoxy)-3′-(5,5,8,8-tetramethyl-5,6,7,8-tetrahydronaphth-2-yl)biphenyl-4-carboxylic acid] |  | 8 |  | 
15 | CC1(C)CCC(C)(C)c2cc(-c3cc(-c4ccc(C(=O)O)cc4)ccc3OCCCCN)ccc21 [Compound 75, 4′-(4-Aminobutoxy)-3′-(5,5,8,8-tetramethyl-5,6,7,8-tetrahydronaphth-2-yl)biphenyl-4-carboxylic acid] | 2000 | 60 |  | 8000
